Several values for one entry are separate records, joined by “and”; a condition that tells them apart may be missing. Equal values may be shown once. Peptide text beside a SMILES is read from it.
Key:
ChemR23 = molecular target: T1, ChemR23 (Homo sapiens, UniProt Q99788); assay: Hit Hunter cAMP Hunter assay, human ChemR23; assay type: cell-based
T1 sequence (Q99788 1-373): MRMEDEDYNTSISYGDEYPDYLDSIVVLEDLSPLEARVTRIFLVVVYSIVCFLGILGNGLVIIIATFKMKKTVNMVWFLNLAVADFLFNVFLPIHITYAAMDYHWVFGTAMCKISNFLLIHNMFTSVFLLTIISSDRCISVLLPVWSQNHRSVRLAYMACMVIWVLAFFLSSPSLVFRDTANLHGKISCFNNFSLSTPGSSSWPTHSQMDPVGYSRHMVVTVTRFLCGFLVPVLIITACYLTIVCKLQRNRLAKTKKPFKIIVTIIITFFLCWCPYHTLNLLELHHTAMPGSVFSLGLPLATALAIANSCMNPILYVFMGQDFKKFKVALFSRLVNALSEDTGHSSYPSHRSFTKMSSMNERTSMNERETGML
Method: The DiscoveRx PathHunter™ eXpress GPCR activity assay was employed to test agonist and antagonist activities of the chemerin peptides against the GPCRs ChemR23 and GPR1. Two assay formats were tested, the PathHunter β-Arrestin assay and the Hit Hunter cAMP Hunter assay.
The protocol used was a standard protocol employed by DiscoveRx PathHunter™ profiling service. […] Once it was established that the cells were healthy and growing normally, cells were passaged from flasks using cell dissociation reagent buffer and seeded into white walled clear bottom 384-well microplates for compound profiling. For profiling, cells were seeded at a density of 10000 cells per well in a total volume of 20 μL and were allowed to adhere and recover overnight prior to compound addition. Cells were treated the following day using the protocols shown below. cAMP modulation was determined using the DiscoveRx HitHunter cAMP XS+ assay.
For profiling compound in agonist mode, the cells were incubated in the presence of compound at 37° C. for 30 minutes.
EC80 agonist concentration was determined directly from agonist dose curve.
Microplates were read following signal generation with a PerkinElmer Envision™ instrument for chemiluminescent signal detection.
Dose curves in the presence and absence of compound were plotted using GraphPad Prism or Activity Base.

[1] = Franz cell skin penetration, C15 in 50% DMSO in water; assay type: in vitro ADME, human
Source text: The objective of the study was to determine whether human C15 peptide would diffuse through in vitro human skin maintained under flow-through conditions in Franz cells with 50% DMSO in water. 50% DMSO is considered an acceptable maximum for penetration enhancement.
The samples used in the study were mouse and human chemerin C15 peptides stored at −20 C°. The skin sample used was human skin obtained from mammoplasty. A frozen sample was stored at −20 C.° for 30 days. A fresh sample was obtained in tissue media and antibiotics and used within 3 days.
1. A 1% solution of mouse C15 in 50% DMSO in water was applied to previously frozen human skin to develop the HPLC method for subsequent tests with human C15. This was done in triplicate. 2. A 2% solution of human C15 in 50% DMSO in water was applied to fresh human skin and epidermis, dermis, and receptor fluid were analyzed for C15.
Skin was rinsed, blotted dry, cut into circular pieces and conditioned in the Franz cell for 2 hours prior to C15 application. Flow-through, water-jacketed diffusion cells that exposed a skin area of 2.54 cm2 were used. The cells were maintained at 37° C., operated under static conditions and stirred at 700 rpm for 24 hr. PBS (pH=7.0) was used as the receptor fluid. C15 solutions in 50% DMSO in water was prepared on the day of the experiments.
400 μl of each C15 solution was pipetted in aliquots of 100 μl onto the skin surface and the diffusion cell sealed with parafilm. Diffusion cells were run in triplicate with a single control consisting of skin treated with vehicle only. Receptor fluid (≈5 mL) was collected at the end of 24 hours and concentrated by evaporation prior to analysis. The skin was blotted dry, tape-stripped three times to remove residual C15 and heat-separated at 50° C. into epidermis and dermis. Epidermis was sonicated in 5% TCA for 10 minutes and the supernatant analyzed. Dermis was minced and homogenized in 5% TCA and the supernatant concentrated and analyzed.
For the mouse C15 experiment only the receptor fluid was analyzed.
A reverse-phase HPLC method was developed to quantify Human C15 (Shimamura et al., 2009). The separation was achieved using a Phenomenex Gemini™ C18 column (Cat. No. 00B-4439-E0, 4.6×50 mm, 3 μm) at 40° C. in the Shimadzu 20A system. The mobile phase was mixed with (A) 0.1% formic in water and (B) 0.1% formic acid in acetonitrile. The separation was conducted using a gradient system of 80% A+20% B to 10% A+90% B (0-3 min) and 10% A+90% B (3-3.5 min) at a flow rate of 0.8 ml/min. The injection volume was 5 μl. The eluent was monitored at 275 nm Human C15 was observed as a single peak in the chromatogram with retention time at about 1.8 min. The quantification of Human C15 was achieved by external standard calibration. […]

[2] = 2% human C15 in 50% DMSO, fresh human skin, % absorbed of the applied dose, listed as C15

CC(C)C[C@H](NC(=O)[C@H](Cc1ccccc1)NC(=O)[C@H](Cc1ccc(O)cc1)NC(=O)CNC(=O)[C@H](Cc1c[nH]cn1)NC(=O)[C@@H]1CCCN1C(=O)[C@H](CC(=O)O)NC(=O)[C@H](CCC(=O)O)NC(=O)CNC(=O)[C@H](C)N)C(=O)N1CCC[C@H]1C(=O)NCC(=O)N[C@@H](CCC(N)=O)C(=O)N[C@@H](Cc1ccccc1)C(=O)N[C@@H](C)C(=O)O [mC15] (H-AGEDPHGYFLPGQFA-OH; N-terminus and C-terminus assumed)
IC50 (ChemR23): > 10 µM
C15 receptor fluid level ([1]; 1% mouse C15 in 50% DMSO, frozen human skin): 0.3%

C[C@H](N)C(=O)NCC(=O)N[C@@H](CCC(=O)O)C(=O)N[C@@H](CC(=O)O)C(=O)N1CCC[C@H]1C(=O)N[C@@H](Cc1c[nH]cn1)C(=O)N[C@@H](CO)C(=O)N[C@@H](Cc1ccccc1)C(=O)N[C@@H](Cc1ccc(O)cc1)C(=O)N[C@@H](Cc1ccccc1)C(=O)N1CCC[C@H]1C(=O)NCC(=O)N[C@@H](CCC(N)=O)C(=O)N[C@@H](Cc1ccccc1)C(=O)N[C@@H](C)C(=O)O [C15 (human)] (H-AGEDPHSFYFPGQFA-OH; N-terminus and C-terminus assumed)
IC50 (ChemR23): > 10 µM
% C15 in skin compartment, epidermis [1, 2]: 8.76% and 7.38% and 2.67%
% C15 in skin compartment, receptor fluid [1, 2]: 0.02% and 0.09% and 0.01%
penetration through human skin, in words ([1]; in vitro flow-through conditions, 50% DMSO in water): does penetrate through human skin

C[C@H](N)C(=O)NCC(=O)N[C@@H](CCC(=O)O)C(=O)N[C@@H](CC(=O)O)C(=O)N1CCC[C@H]1C(=O)N[C@@H](Cc1c[nH]cn1)C(=O)N[C@@H](CO)C(=O)N[C@@H](Cc1ccccc1)C(=O)N[C@@H](Cc1ccc(O)cc1)C(=O)N[C@@H](Cc1ccccc1)C(=O)N1CCC[C@H]1C(=O)NCC(=O)N[C@@H](CCC(N)=O)C(=O)N[C@@H](Cc1ccccc1)C(=O)N[C@@H](C)C(=O)N[C@@H](Cc1ccccc1)C(=O)N[C@@H](CO)C(=O)O [C17 (human)] (H-AGEDPHSFYFPGQFAFS-OH; N-terminus and C-terminus assumed)
IC50 (ChemR23): > 10 µM
